Laboratory results as given in ChEMBL document CHEMBL1133847, “Fipronil-based photoaffinity probe for Drosophila and human beta 3 GABA receptors” (Bioorg Med Chem Lett, 2001).

Target: T1, Gamma-aminobutyric acid receptor subunit beta-3 (Homo sapiens, UniProt P28472)
T1 sequence (P28472 whole entry): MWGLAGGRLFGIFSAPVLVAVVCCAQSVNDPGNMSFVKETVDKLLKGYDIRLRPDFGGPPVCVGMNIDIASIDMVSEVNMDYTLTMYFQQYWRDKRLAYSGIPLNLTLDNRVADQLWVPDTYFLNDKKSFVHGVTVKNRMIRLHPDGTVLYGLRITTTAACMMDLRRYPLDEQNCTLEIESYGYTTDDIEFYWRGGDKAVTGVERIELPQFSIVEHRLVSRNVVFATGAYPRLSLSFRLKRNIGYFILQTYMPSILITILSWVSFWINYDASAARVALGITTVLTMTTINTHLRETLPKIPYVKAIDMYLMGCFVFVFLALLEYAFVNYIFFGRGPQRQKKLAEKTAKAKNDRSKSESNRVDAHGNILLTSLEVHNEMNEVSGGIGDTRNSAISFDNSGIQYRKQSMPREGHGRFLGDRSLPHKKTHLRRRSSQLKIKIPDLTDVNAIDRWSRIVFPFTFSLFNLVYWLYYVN
Experiment: Inhibition of [3H]EBOB binding to human GABA-A receptor beta3 subunit (range 1-28)

Compound	IC50
FC(F)(F)c1cc(Cl)c(-n2cc(C3(C(F)(F)F)N=N3)cn2)c(Cl)c1	28 nM
N#Cc1nn(-c2c(Cl)cc(C(F)(F)F)cc2Cl)c(N)c1[S+]([O-])C(F)(F)F (configuration not stated) [FIPRONIL]	28 nM
